# Source: patent US8673587B2, “Methods for identifying allosteric and other novel acyl-coenzyme A:cholesterol acyltransferase inhibitors” (Trustees of Dartmouth College, priority 2010, dated 2014)
# What was measured:
# [1] = biological target: T1, HisACAT1/FLAG (recombinant hACAT1) (Homo sapiens, UniProt P35610, M1L); assay: Ligand binding by change in intrinsic (tryptophan) fluorescence of HisACAT1/FLAG
# T1 construct: hACAT1 contains 550 amino acids; made in house
# T1 sequence (P35610 1-550 M1L): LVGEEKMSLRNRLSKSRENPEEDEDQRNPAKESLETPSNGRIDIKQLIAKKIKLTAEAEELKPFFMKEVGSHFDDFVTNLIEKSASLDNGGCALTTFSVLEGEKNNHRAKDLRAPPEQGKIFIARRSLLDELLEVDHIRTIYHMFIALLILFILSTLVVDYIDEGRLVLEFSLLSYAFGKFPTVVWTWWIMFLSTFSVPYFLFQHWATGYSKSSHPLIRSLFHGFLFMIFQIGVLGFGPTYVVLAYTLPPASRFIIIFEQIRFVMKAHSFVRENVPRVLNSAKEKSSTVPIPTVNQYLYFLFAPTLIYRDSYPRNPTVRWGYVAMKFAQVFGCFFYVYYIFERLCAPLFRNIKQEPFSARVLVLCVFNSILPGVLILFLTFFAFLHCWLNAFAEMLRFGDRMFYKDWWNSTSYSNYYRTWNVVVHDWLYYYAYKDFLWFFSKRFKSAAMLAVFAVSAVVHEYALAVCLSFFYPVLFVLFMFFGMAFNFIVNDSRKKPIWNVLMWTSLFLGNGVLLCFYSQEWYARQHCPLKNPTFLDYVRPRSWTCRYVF
# From the text: Fluorescence measurements were generated using an ISS PC1 photocounting fluorescence spectrophotometer (model 90095). This instrument has continuously reproducible slits ranging from 0.4 to 32 nm band-pass. The excitation slit width was set at 2 nm. The wavelength for excitation was set at 295 nm in order to minimize the contribution of tyrosine residues to the fluorescence. Purified HisACAT1/FLAG was concentrated using 30K AMICON centrifugal filters such that the final concentration of the protein was 100-200 ng/μL (1.5-3 μM). Purified protein was stored at −80° C. until used. Unless stated otherwise, the fluorescence measurements were performed at pH 7.8 with 50 mM potassium phosphate, 0.5M KCl, and 8.13 mM CHAPS. Sterol (cholesterol, epicholesterol, coprostanol, and epicoprostanol) was prepared as CHAPS/PC/sterol mixed micelles (with CHAPS at 8.13 mM, PC at 4 mM, and with varying concentrations of sterols as indicated) and stored at 20° C. in the dark until usage. The fatty acyl-CoAs were dissolved in 20 mM sodium acetate at pH 6.4 as a 2 mM stock and stored at −80° C. until used. Before the experiment started, all reagents were kept on ice in the dark. To begin the experiment, 50 μL of mixed micelles without or with sterols was added into a HELLMA microcuvette with 3 mm light path. Twenty-five microliters of ACAT1 protein (in 8.13 mM CHAPS and 0.5 M KCl) was then added and rapidly mixed. Fluorescence was monitored within 15 seconds of adding the enzyme. The sample compartment of the instrument was maintained at 20° C. The fluorescence emission spectrum was scanned in 2 minutes between 310 and 410 nm. The differences in fluorescence intensity at 10 intervals within 325-335 nm were averaged in order to calculate the ΔF value between the ligated protein vs that of the unligated protein.
# Binding studies were subsequently conducted by monitoring the effect of increasing concentrations of oleoyl-CoA on the intrinsic fluorescence of HisACAT1/FLAG. […] However, the maximal change in the peak of the spectrum was much smaller (5% with respect to the unliganded protein). […] The data was analyzed for a simple bimolecular dissociation equilibrium using the PRISM program.
# Binding experiments were subsequently performed by monitoring the effect of increasing concentrations of cholesterol, from 10 to 600 μM, on the intrinsic fluorescence of HisACAT1/FLAG. […] It was estimated that the cholesterol concentration that caused half-maximal spectral change was 35 μM. […] The changes in the intrinsic fluorescence of ACAT1 caused by cholesterol, epicholesterol, coprostanol, or epicoprostanol as the ligand were also compared.
# [2] = biological target: T1, HisACAT1/FLAG (recombinant hACAT1); assay: Steady-state enzyme kinetics with fatty acyl-CoA as variable substrate, purified HisACAT1/FLAG; format: biochemical; conditions: constant, saturating cholesterol in CHAPS/PC mixed micelles
# Procedure: To monitor enzyme activity during enzyme purification, the enzyme solubilized in the detergent CHAPS was assayed in preformed taurocholate/cholesterol/phosphatidylcholine (PC) mixed micelles as described previously (Chang, C. C. et al. 1998. J. Biol. Chem. 273:35132-35141), with a final concentration of taurocholate at 9.3 mM, PC at 11.2 mM, and cholesterol at 1.6 mM. The amount of mixed micelle solution was used to dilute the detergent presented in the enzyme preparation, so the final CHAPS/PC molar ratio was less than 0.4. The fatty acyl-CoA substrate saturation curves and cholesterol substrate saturation curves were performed under the same conditions as described previously (Chang, C. C. et al. 1998. supra).
# Prior to conducting binding experiments, steady-state enzyme kinetic experiments were conducted using purified HisACAT1/FLAG as the enzyme source and either oleoyl- (18:1) CoA or stearoyl- (18:0) CoA as the variable substrate, at a constant, saturating level of cholesterol in the CHAPS/PC mixed micelles.
# [3] = test system: amyloid precursor protein (APP); conditions: animal models for AD; cited from earlier work
# [4] = fed to animals; cited from earlier work
# [5] = test system: lysohpospholipid acyltransferase (LPAT); conditions: cited from earlier work
smiles,measurement,setting,value
CCCCCCCC/C=C\CCCCCCCC(=O)SCCNC(=O)CCNC(=O)[C@H](O)C(C)(C)COP(=O)(O)OP(=O)(O)OC[C@H]1O[C@@H](n2cnc3c(N)ncnc32)[C@H](O)[C@@H]1OP(=O)(O)O [oleoyl-CoA],maximal increase in fluorescence peak height with respect to unliganded ACAT1 protein,"[1]; excitation 295 nm, peak 330 nm",approximately 32%
same,Kd,"[1]; simple bimolecular dissociation equilibrium, PRISM, read-out: dissociation constant",1.9 µM
same,"Vmax, fold higher than for stearoyl-CoA",[2],2.4 fold
CC(C)c1cc(C(C)C)c(CC(=O)NS(=O)(=O)Oc2c(C(C)C)cccc2C(C)C)c(C(C)C)c1 [CI1011],mature/immature ratio of human APP,[3],decreased
same,VLDL-triglyceride content,[4],reduces the VLDL-triglyceride content
CCCCCCCCCCC(C)(C)C(=O)Nc1c(OC)cc(OC)cc1OC [CI976],inhibition of LPAT,[5],has been shown to inhibit
